Reference: patent US20250034110A1, “LPAR1 ANTAGONISTS AND USES THEREOF” (Pipeline Therapeutics, Inc., priority 2021, published 2025)
Read-outs that look alike come from different tables or passages of the source.

Biological target: human LPAR1 (Homo sapiens, UniProt Q92633)
Test: In vitro functional assay of lysophosphatidic acid receptor 1 activity (calcium flux)
Type: cell-based
[1] = B103 cells stably expressing human LPAR1, calcium flux (Fluo-4 NW) after lysophosphatidic acid (18:1) at EC80, 100 pM to 10 μM, read-out: LPAR1 IC50

Sequence of human LPAR1 (Q92633 whole entry): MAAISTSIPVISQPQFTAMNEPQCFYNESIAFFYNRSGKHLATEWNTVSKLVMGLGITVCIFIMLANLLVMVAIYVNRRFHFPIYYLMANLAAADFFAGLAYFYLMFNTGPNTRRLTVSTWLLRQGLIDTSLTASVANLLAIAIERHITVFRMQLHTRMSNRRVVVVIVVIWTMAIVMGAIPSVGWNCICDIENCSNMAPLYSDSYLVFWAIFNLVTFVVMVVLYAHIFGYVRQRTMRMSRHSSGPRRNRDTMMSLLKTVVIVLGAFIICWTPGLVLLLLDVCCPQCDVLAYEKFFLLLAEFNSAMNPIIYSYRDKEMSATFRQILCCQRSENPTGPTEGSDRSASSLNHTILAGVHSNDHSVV

Structure (SMILES) | IC50 (LPAR1 IC50) [nM] | IC50 [1] [nM]
CCOc1ccc(NC(=O)N(c2ccccc2C(C)C)C2CCN(C(C)=O)CC2)c(OC(F)F)n1 [Example 107] | 10 to 100 | 
COc1ccc(NC(=O)N(c2ccccc2C(C)C)[C@H]2CCN(C(C)=O)C[C@H]2F)c(OC(F)F)n1 [Example 48, 1-((3R,4S)-1-acetyl-3-fluoropiperidin-4-yl)-3-(2-(difluoromethoxy)-6-methoxypyridin-3-yl)-1-(2-isopropylphenyl)urea] | 10 to 100 | 
Cc1ccc(NC(=O)N(c2ccccc2C(C)C)C2CN(C(=O)OC(C)(C)C)C2)c(OC(F)F)n1 [Example 2, tert-butyl 3-(3-(2-(difluoromethoxy)-6-methylpyridin-3-yl)-1-(2-isopropylphenyl)ureido)azetidine-1-carboxylate] |  | 100 to 1000
COc1ccc(NC(=O)N(c2ccccc2C(C)C)[C@H]2C[C@@H]3CC[C@H]2N3C(C)=O)c(OC(F)F)n1 (racemic) [Example 60, rac-1-((1R,2S,4S)-7-acetyl-7-azabicyclo[2.2.1]heptan-2-yl)-3-(2-(difluoromethoxy)-6-methoxypyridin-3-yl)-1-(2-isopropylphenyl)urea] |  | > 1000
Cc1ccc(NC(=O)N(c2ccccc2C(C)C)[C@H]2C[C@@H](C#N)C2)c(OC(F)F)n1 [Example 26, 1-((1s,3s)-3-cyanocyclobutyl)-3-(2-(difluoromethoxy)-6-methylpyridin-3-yl)-1-(2-isopropylphenyl)urea] |  | 100 to 1000
Cc1ccc(NC(=O)N(c2ccccc2C(C)C)[C@H]2CCC(=O)N(C)C2)c(OC(F)F)n1 [Example 6, (S)-3-(2-(difluoromethoxy)-6-methylpyridin-3-yl)-1-(2-isopropylphenyl)-1-(1-methyl-6-oxopiperidin-3-yl)urea] |  | 10 to 100
Cc1ccc(NC(=O)N(c2ccccc2C(C)C)C2CN(CCC3(C(=O)O)CCC3)C2)c(OC(F)F)n1 [Example 174] |  | 100 to 1000
COc1ccc(NC(=O)N(c2ccccc2C(C)C)C2CCN(C(C)=O)CC2)c(OC(F)F)n1 [Example 86, 1-(1-acetylpiperidin-4-yl)-3-(2-(difluoromethoxy)-6-methoxypyridin-3-yl)-1-(2-isopropylphenyl)urea] | 10 to 100 | 
CCOc1nc(C)ccc1NC(=O)N(c1ccccc1C(C)C)C1CCN(C(C)=O)CC1 [Example 105] | 100 to 1000 | 
COc1ccc(NC(=O)N(c2ccccc2C(C)C)C23CCN(C(C)=O)CC2C3)c(OC(F)F)n1 (stereo not drawn) [Example 61, 1-(3-acetyl-3-azabicyclo[4.1.0]heptan-6-yl)-3-(2-(difluoromethoxy)-6-methoxypyridin-3-yl)-1-(2-isopropylphenyl)urea] | 10 to 100 | 
CC(=O)N1CC2(CCC(N(C(=O)Nc3ccc(C)nc3OC(F)F)c3ccccc3C(C)C)CC2)C1 [Example 250, 1-(2-acetyl-2-azaspiro[3.5]nonan-7-yl)-3-(2-(difluoromethoxy)-6-methylpyridin-3-yl)-1-(2-isopropylphenyl)urea] |  | 100 to 1000
Cc1ccc(NC(=O)N(C[C@H]2CC[C@H](C(=O)O)CC2)c2ccccc2C(C)C)c(OC(F)F)n1 [Example 171] |  | 10 to 100
CC(=O)N[C@H]1CC[C@@H](N(C(=O)Nc2ccc(C)nc2OC(F)F)c2ccccc2C(C)C)CC1 [Example 266, N-((1s,4s)-4-(3-(2-(difluoromethoxy)-6-methylpyridin-3-yl)-1-(2-isopropylphenyl)ureido)cyclohexyl)acetamide] |  | 100 to 1000
C#CCCS(=O)(=O)NC(=O)[C@H]1CC[C@H](N(C(=O)Nc2ccc(OC)nc2OC(F)F)c2ccccc2C(C)C)CC1 [Example 280] |  | < 10
Cc1ccc(NC(=O)N(c2ccccc2C(C)C)[C@H]2C[C@H](C(=O)O)C2)c(OC(F)F)n1 [Example 161, trans-3-(3-(2-(difluoromethoxy)-6-methylpyridin-3-yl)-1-(2-isopropylphenyl)ureido)cyclobutane-1-carboxylic acid] |  | 10 to 100
Cc1ccc(NC(=O)N(c2ccccc2C(C)C)[C@H]2C[C@H](C#N)C2)c(OC(F)F)n1 [Example 25, 1-((1r,3r)-3-cyanocyclobutyl)-3-(2-(difluoromethoxy)-6-methylpyridin-3-yl)-1-(2-isopropylphenyl)urea] |  | 100 to 1000
COc1ccc(NC(=O)N(c2ccccc2C(C)C)C2CC(CC(=O)O)C2)c(OC(F)F)n1 (stereo not drawn) [Example 148] |  | < 10
Cc1ccc(NC(=O)N(c2ccccc2C(C)C)[C@H]2CC[C@](C)(C(=O)O)CC2)c(OC(F)F)n1 [Example 309] |  | < 10
Cc1ccc(NC(=O)N(c2ccccc2C(C)C)C2CC(=O)C2)c(OC(F)F)n1 [Example 195] |  | 10 to 100
COc1nc(OC(F)F)c(NC(=O)N(c2ccccc2C(C)C)C2CCN(C(C)=O)CC2)cc1F [Example 225, 1-(1-acetylpiperidin-4-yl)-3-(2-(difluoromethoxy)-5-fluoro-6-methoxypyridin-3-yl)-l-(2-isopropylphenyl)urea] | 10 to 100 | 
Cc1ccc(NC(=O)N(c2ccccc2C(C)C)C2CCN(C(=O)OC(C)(C)C)CC2)c(OC(F)F)n1 [Example 1, tert-butyl 4-(3-(2-(difluoromethoxy)-6-methylpyridin-3-yl)-1-(2-isopropylphenyl)ureido)piperidine-1-carboxylate] | 100 to 1000 | 

Structure (SMILES) | IC50 (LPAR1 IC50) [nM] | IC50 [1] [nM]
Cc1ccc(NC(=O)N(c2ccccc2C(C)C)C2CC3(C2)CN(S(N)(=O)=O)C3)c(OC(F)F)c1 [Example 128] |  | 10 to 100
COc1ccc(NC(=O)N(c2ccccc2C(C)C)C2CCCN(C(C)=O)C2)c(OC(F)F)n1 (stereo not drawn) [Example 43, 1-(1-acetylpiperidin-3-yl)-3-(2-(difluoromethoxy)-6-methoxypyridin-3-yl)-1-(2-isopropylphenyl)urea] |  | 100 to 1000
COc1cc(C)c(Cl)cc1NC(=O)N(c1ccccc1C(C)C)[C@H]1CC[C@H](C(=O)O)CC1 [Example 328, (1r,4r)-4-(3-(5-chloro-2-methoxy-4-methylphenyl)-1-(2-isopropylphenyl)ureido)cyclohexane-1-carboxylic acid] |  | 10 to 100
Cc1ccc(NC(=O)N(c2ccccc2C(C)C)[C@@H]2CC[C@H](C(=O)O)C2)c(OC(F)F)n1 [Example 302] |  | 10 to 100
Cc1ccc(NC(=O)N(CC23CC(C(=O)O)(CO2)C3)c2ccccc2C(C)C)c(OC(F)F)n1 [Example 168] |  | 10 to 100
CC(=O)N1CCC(N(C(=O)Nc2ncc(C(F)(F)F)cc2Br)c2ccccc2C(C)C)CC1 [Example 139] | > 1000 | 
COc1ccc(NC(=O)N(c2ccccc2C(C)C)[C@H]2CCN(C3COC3)C2)c(OC(F)F)n1 [Example 38, (S)-3-(2-(difluoromethoxy)-6-methoxypyridin-3-yl)-1-(2-isopropylphenyl)-1-(1-(oxetan-3-yl)pyrrolidin-3-yl)urea] |  | 100 to 1000
CC(=O)N1CC2(CC(N(C(=O)Nc3ncc(Br)cc3OC(F)F)c3ccccc3C(C)C)C2)C1 [Example 123, 1-(2-acetyl-2-azaspiro[3.3]heptan-6-yl)-3-(5-bromo-3-(difluoromethoxy)pyridin-2-yl)-1-(2-isopropylphenyl)urea] |  | 100 to 1000
Cc1ccc(NC(=O)N(c2ccccc2C(C)C)C2CC3(CC(C(=O)O)C3)C2)c(OC(F)F)n1 (stereo not drawn) [Example 229] |  | 10 to 100
Cc1ccc(NC(=O)N(c2ccccc2C(C)C)[C@@H]2CCOC2)c(OC(F)F)n1 [Example 16, (R)-3-(2-(difluoromethoxy)-6-methylpyridin-3-yl)-1-(2-isopropylphenyl)-1-(tetrahydrofuran-3-yl)urea] |  | 10 to 100
CC(=O)N1CCC(N(C(=O)Nc2ccc(C)nc2OC(F)F)c2ccccc2C(F)F)CC1 [Example 34, 1-(1-acetylpiperidin-4-yl)-3-(2-(difluoromethoxy)-6-methylpyridin-3-yl)-1-(2-(difluoromethyl)phenyl)urea] | > 1000 | 
Cc1ccc(NC(=O)N(C[C@H]2CCN2C(=O)OC(C)(C)C)c2ccccc2C(C)C)c(OC(F)F)n1 [Example 11, tert-butyl (R)-2-((3-(2-(difluoromethoxy)-6-methylpyridin-3-yl)-1-(2-isopropylphenyl)ureido)methyl)azetidine-1-carboxylate] |  | > 1000
CC(=O)N(C(C)=O)[C@H]1CC[C@@H](N(C(=O)Nc2ccc(C)nc2OC(F)F)c2ccccc2C(C)C)CC1 [Example 264, N-acetyl-N-((1s,4s)-4-(3-(2-(difluoromethoxy)-6-methylpyridin-3-yl)-1-(2-isopropylphenyl)ureido)-cyclohexyl)acetamide] |  | 100 to 1000
Cc1ccc(NC(=O)N(c2ccccc2C(C)C)C2CC(CC(=O)O)C2)c(OC(F)F)n1 (stereo not drawn) [Example 160, 2-(3-(3-(2-(difluoromethoxy)-6-methylpyridin-3-yl)-1-(2-isopropylphenyl)ureido)cyclobutyl)acetic acid] |  | < 10
Cc1ccc(NC(=O)N(c2ccccc2C(C)C)[C@H]2C[C@@H](Cc3nnn[nH]3)C2)c(OC(F)F)n1 [Example 192] |  | 10 to 100
COc1ccc(NC(=O)N(c2ccccc2C(C)C)[C@H]2CC[C@](C)(C(=O)O)CC2)c(OC(F)F)n1 [Example 340] |  | 10 to 100
Cc1ccc(NC(=O)N(c2ccccc2C(C)C)[C@H]2CC[C@@H](CC(=O)O)CC2)c(OC(F)F)n1 [Example 166, 2-((1s,4s)-4-(3-(2-(difluoromethoxy)-6-methylpyridin-3-yl)-1-(2-isopropylphenyl)ureido)cyclohexyl)acetic acid] |  | 10 to 100
CC(=O)N1CC2(CC(N(C(=O)Nc3ccc(C)cc3OC(F)F)c3ccccc3C(C)C)C2)C1 [Example 125, 1-(2-acetyl-2-azaspiro[3.3]heptan-6-yl)-3-(2-(difluoromethoxy)-4-methylphenyl)-1-(2-isopropylphenyl)urea] |  | 10 to 100
COc1ccc(NC(=O)N(c2ccccc2C(C)C)[C@H]2CCN(C(C)=O)C[C@H]2F)c(OC(F)F)n1 (racemic) [Example 47, rac-1-((3R,4S)-1-acetyl-3-fluoropiperidin-4-yl)-3-(2-(difluoromethoxy)-6-methoxypyridin-3-yl)-1-(2-isopropylphenyl)urea] | 10 to 100 | 
COC(=O)C1CC(CN(C(=O)Nc2ccc(C)nc2OC(F)F)c2ccccc2C(C)C)C1 (stereo not drawn) [Example 169] |  | 10 to 100
Cc1ccc(NC(=O)N(c2ccccc2C(C)C)[C@@H]2CCC[C@H](C(=O)O)C2)c(OC(F)F)n1 [Example 287] |  | 100 to 1000
